In ChEMBL document CHEMBL1141411, “Structural characterization of daptomycin analogues A21978C1-3(d-Asn11) produced by a recombinant Streptomyces roseosporus strain” (2007):
Converted amounts (≈) assume the structure as drawn.

System: Staphylococcus aureus
Experiment: Antibacterial activity against Staphylococcus aureus 42 by broth microdilution method
Assay type: functional

Row | MIC [µM] | Structure (SMILES)
1 | 0.6 (≈ 0.997 µg/mL) | CCC(C)CCCCCCC(=O)N[C@@H](Cc1c[nH]c2ccccc12)C(=O)N[C@H](CC(N)=O)C(=O)N[C@@H](CC(=O)O)C(=O)N[C@@H]1C(=O)NCC(=O)N[C@@H](CCCN)C(=O)N[C@@H](CC(=O)O)C(=O)N[C@H](C)C(=O)N[C@@H](CC(=O)O)C(=O)NCC(=O)N[C@H](CC(N)=O)C(=O)N[C@@H]([C@H](C)CC(=O)O)C(=O)N[C@@H](CC(=O)c2ccccc2N)C(=O)O[C@@H]1C (some centres undefined)
2 | 0.15 (≈ 0.253 µg/mL) | CCC(C)CCCCCCCCC(=O)N[C@@H](Cc1c[nH]c2ccccc12)C(=O)N[C@H](CC(N)=O)C(=O)N[C@@H](CC(=O)O)C(=O)N[C@@H]1C(=O)NCC(=O)N[C@@H](CCCN)C(=O)N[C@@H](CC(=O)O)C(=O)N[C@H](C)C(=O)N[C@@H](CC(=O)O)C(=O)NCC(=O)N[C@H](CC(N)=O)C(=O)N[C@@H]([C@H](C)CC(=O)O)C(=O)N[C@@H](CC(=O)c2ccccc2N)C(=O)O[C@@H]1C (some centres undefined)
3 | 0.6 (≈ 0.972 µg/mL) | CCCCCCCCCC(=O)N[C@@H](Cc1c[nH]c2ccccc12)C(=O)N[C@H](CC(N)=O)C(=O)N[C@@H](CC(=O)O)C(=O)N[C@@H]1C(=O)NCC(=O)N[C@@H](CCCN)C(=O)N[C@@H](CC(=O)O)C(=O)N[C@H](C)C(=O)N[C@@H](CC(=O)O)C(=O)NCC(=O)N[C@H](CO)C(=O)N[C@@H]([C@H](C)CC(=O)O)C(=O)N[C@@H](CC(=O)c2ccccc2N)C(=O)O[C@@H]1C
4 | 0.3 (≈ 0.503 µg/mL) | CC(C)CCCCCCCCC(=O)N[C@@H](Cc1c[nH]c2ccccc12)C(=O)N[C@H](CC(N)=O)C(=O)N[C@@H](CC(=O)O)C(=O)N[C@@H]1C(=O)NCC(=O)N[C@@H](CCCN)C(=O)N[C@@H](CC(=O)O)C(=O)N[C@H](C)C(=O)N[C@@H](CC(=O)O)C(=O)NCC(=O)N[C@H](CC(N)=O)C(=O)N[C@@H]([C@H](C)CC(=O)O)C(=O)N[C@@H](CC(=O)c2ccccc2N)C(=O)O[C@@H]1C
